Reference: ChEMBL document CHEMBL4725303, “New V1a receptor antagonist. Part 1. Synthesis and SAR development of urea derivatives” (Bioorg Med Chem Lett, 2020)

How the values were obtained:
[1] = target: T1, Vasopressin V1a receptor (Homo sapiens, UniProt P37288); assay: Antagonist activity at human V1a receptor expressed in human 1321N1 cells assessed as decrease in Arg8-vasopressin-stimulated calcium flux by fluorometric calcium assay; format: functional, cell-based
Target sequence in this assay (P37288 whole entry): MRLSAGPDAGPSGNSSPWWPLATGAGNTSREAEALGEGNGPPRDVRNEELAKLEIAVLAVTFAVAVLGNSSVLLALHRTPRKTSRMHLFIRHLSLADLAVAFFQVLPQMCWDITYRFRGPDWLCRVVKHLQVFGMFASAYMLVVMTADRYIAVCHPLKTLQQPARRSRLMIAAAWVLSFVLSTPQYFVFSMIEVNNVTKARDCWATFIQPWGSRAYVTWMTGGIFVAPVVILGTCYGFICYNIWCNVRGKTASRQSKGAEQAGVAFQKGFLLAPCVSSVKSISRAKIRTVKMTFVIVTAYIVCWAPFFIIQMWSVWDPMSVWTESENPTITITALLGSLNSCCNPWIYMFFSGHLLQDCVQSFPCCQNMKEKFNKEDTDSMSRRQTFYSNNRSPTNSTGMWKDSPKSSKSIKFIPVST

[2] = target: T1, Vasopressin V1a receptor; assay: Displacement of [3H]AVP from human V1a receptor expressed in […] cells assessed as dissociation constant by radioligand binding assay; format: cell-based, 1321N1
Target sequence in this assay (P37288 whole entry): as above

[3] = target: T1, Vasopressin V1a receptor; assay: Antagonist activity at human V1a receptor expressed in human 1321N1 cells assessed as decrease in Arg8-vasopressin-stimulated calcium flux at 10 uM by fluorometric calcium assay relative to control; format: functional, cell-based
Target sequence in this assay (P37288 whole entry, looked up): as the sequence (P37288 whole entry) above

[4] = Metabolic stability in human liver microsomes assessed as intrinsic clearance at 1 uM in presence of NADPH by HPLC-UV analysis; format: ADME, Microsome; details: read-out: CLH
[5] = Metabolic stability in NMRI mouse liver microsomes assessed as intrinsic clearance at 1 uM in presence of NADPH by HPLC-UV analysis; format: ADME, Microsome; details: read-out: CLH
[6] = Efflux ratio of Apparent permeability across apical to basolateral side in human Caco-2 cells at 10 uM by HPLC-UV or UHPLC-MS/MS analysis; format: ADME, cell-based
[7] = Metabolic stability in Wistar rat liver microsomes assessed as intrinsic clearance at 1 uM in presence of NADPH by HPLC-UV analysis; format: ADME, Microsome; details: read-out: CLH
[8] = Apparent permeability across apical to basolateral side in human Caco-2 cells at 10 uM by HPLC-UV or UHPLC-MS/MS analysis; format: ADME, cell-based
[9] = Apparent permeability across apical to basolateral side in human Caco-2 cells at 1 uM by HPLC-UV or UHPLC-MS/MS analysis; format: ADME, cell-based

Structure (SMILES) | IC50 [1] | Ki [2] | further results
Cc1ccccc1N1CCN(C(=O)N2CCCCc3cc(Cl)ccc32)CC1 | 390 nM | 5 nM | 
CC(=O)N1CCN(C(=O)N2CCN(c3ccccc3C)CC2)c2ccc(F)cc21 |  | 440 nM | inhibition ([3]; filed as antagonist): 62%
Cc1ccccc1N1CCN(C(=O)C2CN(C(=O)C(C)C)Cc3cc(Cl)ccc32)CC1 (racemic) | 135 nM | 5 nM | 
Cc1cccnc1N1CCN(C(=O)N2CCNc3cc(Cl)ccc32)CC1 | 450 nM | 2 nM | 
Cc1ccccc1N1CCN(C(=O)N2CCNc3ccc(Cl)cc32)CC1 | 1400 nM | 560 nM | 
Cc1ccccc1N1CCN(C(=O)N2CNCc3cc(Cl)ccc32)CC1 | 40 nM | 3 nM | 
CN(C)CCn1cc(C(=O)N2CCC3(CC2)OCc2ccccc23)c2ccc(Cl)cc21 [RO-5028442] | 2 nM | 5.5 nM | microsomal CLint at 1 µM [4]: 20 µL/min/mg; microsomal CLint at 1 µM [5]: 341 µL/min/mg; efflux ratio at 10 µM [6]: 0.9; microsomal CLint at 1 µM [7]: 130 µL/min/mg; Papp A→B at 10 µM [8]: 15 ×10⁻⁶ cm/s
CN1CCN(C(=O)N2CCN(c3ncccc3Cl)CC2)c2ccc(Cl)cc21 | 55 nM | 2 nM | 
C[C@@H]1CN(C(=O)N2CCNc3cc(Cl)ccc32)CCN1c1ccccn1 |  | 310 nM | inhibition ([3]; filed as antagonist): 57%
O=C(N1CCN(Cc2ccccc2)CC1)N1CCNc2cc(Cl)ccc21 | 8300 nM | 164 nM | 
CN1CCN(C(=O)C2CCN(c3ccccn3)CC2)c2ccc(Cl)cc21 | 260 nM | 14 nM | microsomal CLint at 1 µM [4]: 80 µL/min/mg; microsomal CLint at 1 µM [5]: 132 µL/min/mg; efflux ratio at 10 µM [6]: 0.7; microsomal CLint at 1 µM [7]: 404 µL/min/mg; Papp A→B at 10 µM [8]: 48 ×10⁻⁶ cm/s
CC(=O)N1CCN(C(=O)N2CCN(c3ccccc3C)CC2)c2ccc(Cl)cc21 | 1400 nM | 13 nM | 
Cc1ccccc1N1CCN(C(=O)N2CN(S(C)(=O)=O)Cc3cc(Cl)ccc32)CC1 | 20 nM | 5.3 nM | 
Cc1ccccc1C1CCN(C(=O)N2CCNc3cc(Cl)ccc32)CC1 | 380 nM | 3 nM | 
Cc1ccccc1N1CCN(C(=O)N2CCN(C)c3cc(Cl)ccc32)CC1 | 300 nM | 7 nM | 
Cc1ccccc1N1CCN(C(=O)N2CN(C(=O)c3ccccc3)Cc3cc(Cl)ccc32)CC1 | 35 nM | 3 nM | 
Cc1ccccc1N1CCN(C(=O)C2CN(C(=O)C3CC3)Cc3cc(Cl)ccc32)CC1 (stereo in doubt; (+)-44) | 180 nM | 5 nM | 
Cc1ccccc1N1CCN(C(=O)N2CCc3cc(Cl)ccc32)CC1 | 880 nM | 15 nM | 
O=C(N1CCC(N2CCCCC2)CC1)N1CCNc2cc(Cl)ccc21 |  |  | inhibition [3]: 11%
Cc1ccccc1N1CCN(C(=O)N2CCNc3ccccc32)CC1 | 2800 nM | 70 nM | 
Cc1ccccc1N1CCN(C(=O)C2CN(C(=O)C3CC3)Cc3cc(Cl)ccc32)CC1 (single isomer, unassigned; (-)) |  | 80 nM | 
Cc1ccccc1N1CCN(C(=O)N2CN(C(=O)C(C)C)Cc3cc(Cl)ccc32)CC1 | 11 nM | 2.6 nM | 
Cc1ccccc1N1CCN(C(=O)N2CN(C(=O)C3CCCCC3)Cc3cc(Cl)ccc32)CC1 |  | 5 nM | 

Structure (SMILES) | IC50 [1] | Ki [2] | further results
O=C(N1CCC2(CC1)OCc1ccccc12)N1CCNc2cc(Cl)ccc21 | 280 nM | 4 nM | 
Cc1ccccc1N1CCN(C(=O)C2CN(C(=O)C3CC3)Cc3cc(Cl)ccc32)CC1 (racemic) |  | 25 nM | 
Cc1ccccc1N1CCN(C(=O)N2CN(C(=O)C3CCCC3)Cc3cc(Cl)ccc32)CC1 | 11 nM | 1 nM | 
Cc1ccccc1N1CCN(C(=O)N2C[C@H](C(=O)C3CCCC3)Cc3cc(Cl)ccc32)CC1 | 25 nM | 2.3 nM | 
Cc1ccccc1N1CCN(C(=O)C2CN(C(=O)C3CCCCC3)Cc3cc(Cl)ccc32)CC1 (stereo in doubt; (-)-47) | 280 nM | 40 nM | 
Cc1ccccc1N1CCN(C(=O)N2C[C@@H](C(=O)C3CCCC3)Cc3cc(Cl)ccc32)CC1 | 2.4 nM | 0.6 nM | microsomal CLint at 1 µM [4]: 72 µL/min/mg; microsomal CLint at 1 µM [5]: 235 µL/min/mg; Papp A→B at 1 µM [9]: 10 ×10⁻⁶ cm/s; microsomal CLint at 1 µM [7]: 170 µL/min/mg
Cc1ccccc1N1CCN(C(=O)N2CN(C(=O)C3CC3)Cc3cc(Cl)ccc32)CC1 | 10 nM | 3.3 nM | 
CC(=O)N1Cc2cc(Cl)ccc2N(C(=O)N2CCN(c3ccccc3C)CC2)C1 | 50 nM | 6 nM | microsomal CLint at 1 µM [4]: 88 µL/min/mg; microsomal CLint at 1 µM [5]: 324 µL/min/mg; efflux ratio at 10 µM [6]: 0.7; microsomal CLint at 1 µM [7]: 212 µL/min/mg; Papp A→B at 10 µM [8]: 39 ×10⁻⁶ cm/s
Cc1ccccc1N1CCN(C(=O)N2CN(C(=O)C3(c4ccc(F)cc4)CC3)Cc3cc(Cl)ccc32)CC1 |  | 23 nM | 
O=C(N1CCN(c2ncccc2Cl)CC1)N1CCNc2cc(Cl)ccc21 | 170 nM | 6 nM | 
Cc1ccccc1N1CCN(C(=O)C2CN(C(=O)C3CCCC3)Cc3cc(Cl)ccc32)CC1 (racemic) | 35 nM | 6 nM | microsomal CLint at 1 µM [4]: 188 µL/min/mg; microsomal CLint at 1 µM [5]: 341 µL/min/mg; Papp A→B at 1 µM [9]: 4.3 ×10⁻⁶ cm/s; microsomal CLint at 1 µM [7]: 179 µL/min/mg
Cc1ccccc1N1CCN(C(=O)c2ccc(Cl)c(NC(=O)c3cccs3)c2)CC1 | 800 nM | 170 nM | 
C[C@H]1CN(C(=O)N2CCNc3cc(Cl)ccc32)CCN1c1ccccn1 | 1000 nM | 62 nM | 
Cc1ccccc1N1CCN(C(=O)N2CCCc3cc(Cl)ccc32)CC1 | 200 nM | 4 nM | 
Cc1cccnc1N1CCN(C(=O)N2CCNc3cc(Cl)ccc32)[C@H](C)C1 | 750 nM | 70 nM | 
C[C@H](NC(=O)[C@@H](CC(=O)N1CCC(N2CCCCC2)CC1)N1C(=O)[C@@H](N2C(=O)OC[C@@H]2c2ccccc2)[C@H]1/C=C/c1ccccc1)c1ccccc1 |  |  | microsomal CLint at 1 µM [4]: 156 µL/min/mg; microsomal CLint at 1 µM [5]: 199 µL/min/mg; microsomal CLint at 1 µM [7]: 31 µL/min/mg; Papp A→B at 10 µM [8]: 4.7 ×10⁻⁶ cm/s
Cc1ccccc1N1CCN(C(=O)N2CCNc3cc(Cl)ccc32)CC1 | 80 nM | 4.1 nM | microsomal CLint at 1 µM [4]: 210 µL/min/mg; microsomal CLint at 1 µM [5]: 66 µL/min/mg; Papp A→B at 1 µM [9]: 17 ×10⁻⁶ cm/s; microsomal CLint at 1 µM [7]: 265 µL/min/mg
Cc1ccccc1N1CCN(C(=O)N2CN(C(=O)CO)Cc3cc(Cl)ccc32)CC1 | 35 nM | 4 nM | 
Cc1ccccc1N1CCN(C(=O)C2CN(C(=O)C3CCCCC3)Cc3cc(Cl)ccc32)CC1 (racemic) | 40 nM | 5 nM | 
O=C(N1CCN(c2ccccn2)CC1)N1CCNc2cc(Cl)ccc21 | 6800 nM | 160 nM | 
Cc1ccccc1N1CCN(C(=O)C2CN(C(=O)C3CCCCC3)Cc3cc(Cl)ccc32)CC1 (single isomer, unassigned; (+)) | 21 nM | 4 nM | 
Cc1ccccc1N1CCN(C(=O)N2CN(C)Cc3cc(Cl)ccc32)CC1 | 85 nM | 3 nM | 
